Measured values published in US10640545B2 (THE GOVERNORS OF THE UNIVERSITY OF ALBERTA, priority 2017, dated 2020).
“Also recorded” adds a separate entry of the source. *1 amine or outer side, *2 acyl side, *3 side chain or, on linkers, in order; H or OH if unused. Where a SMILES comes first, the peptide text is derived from it. [ ]: non-standard residue; d: D form. The star is where a group is joined. Phe(4-Br) = N[C@@H](Cc1ccc(Br)cc1)C(=O)O; X1 = N=C(N)NCCCN(N[*:1])C(=O)[*:2]; Palmitoyl = CCCCCCCCCCCCCCCC(=O)*; αMeR = C[C@](N)(CCCNC(=N)N)C(=O)O; NMeL = CN[C@@H](CC(C)C)C(=O)O; pGlu = O=C1CC[C@@H](C(=O)O)N1; αMeL = CC(C)C[C@](C)(N)C(=O)O; Nle = CCCC[C@H](N)C(=O)O; Aib = CC(C)(N)C(=O)O

Assays:
[1] = target: T1, wild-type rat apelin receptor (Rattus norvegicus, UniProt Q9JHG3); assay: Radioligand binding, displacement of [125I]-pyr-1-apelin-13 on CHO cell membranes; conditions: for Ki: displacement of [125I]-pyr-1-apelin-13 (0.2 nM), CHO membranes, rat apelin receptor-EGFP, means ± SE, read-out: Affinity Ki; for receptor binding affinity (in words): rat apelin receptor; for weaker affinity compared to 1, by a factor: ratio of Ki to native 1
T1 construct: expressed in transfected cells
T1 sequence (Q9JHG3 1-377): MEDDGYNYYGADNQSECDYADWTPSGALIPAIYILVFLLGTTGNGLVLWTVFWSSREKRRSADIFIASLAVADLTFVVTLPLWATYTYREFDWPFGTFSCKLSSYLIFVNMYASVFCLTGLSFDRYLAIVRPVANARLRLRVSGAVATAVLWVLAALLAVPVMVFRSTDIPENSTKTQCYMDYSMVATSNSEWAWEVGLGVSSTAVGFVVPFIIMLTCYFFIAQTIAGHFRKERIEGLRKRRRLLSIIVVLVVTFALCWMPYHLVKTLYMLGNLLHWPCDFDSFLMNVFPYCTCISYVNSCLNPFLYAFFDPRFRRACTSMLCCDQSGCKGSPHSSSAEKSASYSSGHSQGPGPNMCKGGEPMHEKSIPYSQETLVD
Method: This experiment evaluated the ability of peptides of the present embodiments to bind to the wild-type rat apelin receptor, in order to examine the impact of synthetic modification within the critical RPRL motif of the apelin peptides.
Membrane preparations from CHO cells stably expressing the wild-type rat apelin receptor-EGFP were prepared as previously described (Gerbier et al., New Structural Insights Into The Apelin Receptor: Identification Of Key Residues For Apelin binding; FASEB J. 2015, 29, 314-322; Iturrioz et. al., Development Of Original Metabolically-Stable Apelin-17 Peptides With Diuretic And Cardiovascular Effects; FASEB J. 2017, 31, 687-700.) Crude membrane preparations (1 μg total mass of membranes/assay) were incubated for 3 h at 20° C. with 0.2 nM [^125I]-pyr-1-apelin-13 (monoiodinated on Lys^8 with Bolton-Hunter reagent, Perkin Elmer, Wellesley, Mass., USA) in binding buffer (50 mM HEPES, 5 mM MgCl2 1149 pH 7.5, BSA 1%) alone or in presence of the different compounds at various concentrations. The reaction was stopped by adding 4 mL of cold binding buffer, filtered on Whatman GF/C filters and washed with 5 mL of cold binding buffer. Radioactivity was then counted using a Wizard 1470 Wallac gamma counter (Perkin Elmer, Turku, Finland). Binding experiment data were analyzed with Graph Pad Prism.

[2] = tested on: anesthetized mice; assay: Blood pressure assay in anesthetized mice; format: in vivo; conditions: 1.4 μM/kg body weight injected; for blood pressure lowering (hypotensive) effect: SBP, DBP, MABP
Method: Synthetic peptides 8-19 were tested for blood pressure lowering abilities in anesthetized mice. Apelin peptides were injected through […], monitoring blood pressure (BP) and heart rate (HR) over 60 minutes.
Mice were anaesthetized with 1.5% isoflurane/oxygen, and body temperature was monitored and maintained at 36° C. by a heating pad. The aorta was cannulated via the right carotid artery using a PV loop catheter (Model 1.2F from Scisense, Transonic) in order to continuously record arterial blood pressure and heart rate (LabScribe 2.0, Scisense). […] Results are reported as systolic blood pressure (SBP), diastolic blood pressure (DBP), mean arterial blood pressure (MABP) and heart rate (HR).
Apelin peptides 11, 56-59 as well as the KLKB1-cleavage fragments 54 and 55 were tested for blood pressure lowering abilities in anesthetized mice.
Mice were anesthetized with 1.5% isoflurane/oxygen, and body temperature was monitored and maintained at 36° C. by a heating pad. The aorta was cannulated via the right carotid artery using a PV loop catheter (model 1.2F from Scisense, Transonic) in order to continuously record arterial blood pressure and heart rate (LabScribe 2.0, Scisense). Compounds 11, and 54-59 or 55-59 (1.4 μM/kg body weight) or the same volume of saline was injected via the right jugular vein. Results are reported as systolic blood pressure (SBP), diastolic blood pressure (DBP), mean arterial blood pressure (MABP), and heart rate (HR) shown in FIGS. 15A-D.
Apelin peptides were delivered systemically via the right internal jugular vein while blood pressure (BP) and heart rate (HR) were continuously monitored in the aorta cannulated via the right carotid artery. All N-terminally extended apelin peptides, except 58, show pronounced and time-stable blood pressure lowering effects (FIGS. 15a-d). […] This correlates with the results obtained from the Ca^2+ mobilization assay.

[3] = in vitro; conditions: human, plasma

Row | Compound | Ki [1] [nM] | receptor binding affinity (in words) [1] | remaining at 0.5 h, 80 µM [3] [%] | remaining at 1 h, 80 µM [3] [%] | weaker affinity compared to 1, by a factor [1] | blood pressure lowering (hypotensive) effect [2] | effect on heart rate (HR) [2]
1 | CCCC[C@H](NC(=O)[C@@H]1CCCN1C(=O)CNC(=O)[C@H](CCCCN)NC(=O)[C@H](Cc1c[nH]cn1)NC(=O)[C@H](CO)NC(=O)[C@H](CC(C)C)N(C)C(=O)[C@H](CCCNC(=N)N)NC(=O)[C@@H]1CCCN1C(=O)[C@H](CCCNC(=N)N)NC(=O)[C@@H]1CCC(=O)N1)C(=O)NC(C)(C)C(=O)N[C@@H](Cc1ccc(Br)cc1)C(=O)O [Peptide 10, pGlu-Arg-Pro-Arg-NMeLeu-Ser-His-Lys-Gly-Pro-Nle-Aib-paraBrPhe] ([pGlu]RPR[NMeL]SHKGP[Nle][Aib][Phe(4-Br)]-OH; C-terminus assumed) | 0.1 ± 0.048 | modest improvement in receptor binding | 77 ± 3 | 59 ± 6 | – | no ability to decrease blood pressure; also recorded: without inducing any vasoactive effects | significant and pronounced effect of increasing the murine HR; also recorded: had an impact on the heart rate
2 | CCCC[C@H](NC(=O)[C@@H]1CCCN1C(=O)CNC(=O)[C@H](CCCCN)NC(=O)[C@H](Cc1c[nH]cn1)NC(=O)[C@H](CO)NC(=O)[C@H](CC(C)C)N(C)C(=O)[C@H](CCCNC(=N)N)NC(=O)[C@@H]1CCCN1C(=O)[C@H](CCCNC(=N)N)NC(=O)[C@H](CCC(N)=O)NC(=O)[C@@H](N)CCCNC(=N)N)C(=O)NC(C)(C)C(=O)N[C@@H](Cc1ccc(Br)cc1)C(=O)O [Peptide 55, Arg-Gln-Arg-Pro-Arg-NMeLeu-Ser-His-Lys-Gly-Pro-Nle-Aib-paraBrPhe] (H-RQRPR[NMeL]SHKGP[Nle][Aib][Phe(4-Br)]-OH; C-terminus assumed) | – | – | – | – | – | inactive or nearly so | –
3 | CCCC[C@H](NC(=O)[C@@H]1CCCN1C(=O)CNC(=O)[C@H](CCCCN)NC(=O)[C@H](Cc1c[nH]cn1)NC(=O)[C@H](CO)NC(=O)[C@H](CC(C)C)NC(=O)[C@H](CCCNC(=N)N)NC(=O)[C@@H]1CCCN1C(=O)[C@H](CCCNC(=N)N)NC(=O)[C@H](CCC(N)=O)NC(=O)[C@@H](N)CCCNC(=N)N)C(=O)NC(C)(C)C(=O)N[C@@H](Cc1ccc(Br)cc1)C(=O)O [Peptide 54] (H-RQRPRLSHKGP[Nle][Aib][Phe(4-Br)]-OH; C-terminus assumed) | – | – | – | – | – | inactive or nearly so | –
4 | CCCCCCCCCCCCCCCC(=O)N[C@@H](CCCCN)C(=O)N[C@@H](Cc1ccccc1)C(=O)N[C@@H](CCCNC(=N)N)C(=O)N[C@@H](CCCNC(=N)N)C(=O)N[C@@H](CCC(N)=O)C(=O)N[C@@H](CCCNC(=N)N)C(=O)N1CCC[C@H]1C(=O)N[C@@H](CCCNC(=N)N)C(=O)N[C@@H](CC(C)C)C(=O)N[C@@H](CO)C(=O)N[C@@H](Cc1c[nH]cn1)C(=O)N[C@@H](CCCCN)C(=O)NCC(=O)N1CCC[C@H]1C(=O)N[C@@H](CCCC)C(=O)NC(C)(C)C(=O)N[C@@H](Cc1ccc(Br)cc1)C(=O)O [Peptide 56] (Palmitoyl-KFRRQRPRLSHKGP[Nle][Aib][Phe(4-Br)]-OH; C-terminus assumed) | – | – | – | – | – | more potent than apelin-17 (2) and apelin-17A2 (5) | –

The next lines start with results.

Row | Ki [1] [nM] | receptor binding affinity (in words) [1] | remaining at 0.5 h, 80 µM [3] [%] | remaining at 1 h, 80 µM [3] [%] | weaker affinity compared to 1, by a factor [1] | Compound | blood pressure lowering (hypotensive) effect [2] | effect on heart rate (HR) [2]
5 | 0.12 ± 0.035 | modest improvement in receptor binding | 32 ± 2 | 22 ± 1 | – | CCCC[C@H](NC(=O)[C@@H]1CCCN1C(=O)CNC(=O)[C@H](CCCCN)NC(=O)[C@H](Cc1c[nH]cn1)NC(=O)[C@H](CO)NC(=O)[C@@H](CC(C)C)NC(=O)[C@H](CCCNC(=N)N)NC(=O)[C@@H]1CCCN1C(=O)[C@H](CCCNC(=N)N)NC(=O)[C@@H]1CCC(=O)N1)C(=O)NC(C)(C)C(=O)N[C@@H](Cc1ccc(Br)cc1)C(=O)O [Peptide 8, pGlu-Arg-Pro-Arg-D-Leu-Ser-His-Lys-Gly-Pro-Nle-Aib-paraBrPhe] ([pGlu]RPR[dL]SHKGP[Nle][Aib][Phe(4-Br)]-OH; C-terminus assumed) | no ability to decrease blood pressure; also recorded: inactivity | –
6 | 1 ± 0.1 | – | 83 ± 3 | 57 ± 1 | 3 | CCCC[C@H](NC(=O)[C@@H]1CCCN1C(=O)CNC(=O)[C@H](CCCCN)NC(=O)[C@H](Cc1c[nH]cn1)NC(=O)[C@H](CO)NC(=O)[C@H](CC(C)C)NC(=O)N(CCCNC(=N)N)NC(=O)[C@@H]1CCCN1C(=O)[C@H](CCCNC(=N)N)NC(=O)[C@@H]1CCC(=O)N1)C(=O)NC(C)(C)C(=O)N[C@@H](Cc1ccc(Br)cc1)C(=O)O [Peptide 16, pGlu-Arg-Pro-azaArg-Leu-Ser-His-Lys-Gly-Pro-Nle-Aib-paraBrPhe] ([pGlu]RP[X1]LSHKGP[Nle][Aib][Phe(4-Br)]-OH; C-terminus assumed) | without inducing any vasoactive effects | significant and pronounced effect of increasing the murine HR; also recorded: had an impact on the heart rate
7 | 0.13 ± 0.032 | – | 61 ± 10 | 55 ± 4 | – | CCCC[C@H](NC(=O)[C@@H]1CCCN1C(=O)CNC(=O)[C@H](CCCCN)NC(=O)[C@H](Cc1c[nH]cn1)NC(=O)[C@H](CO)NC(=O)[C@H](CC(C)C)NC(=O)[C@](C)(CCCNC(=N)N)NC(=O)[C@@H]1CCCN1C(=O)[C@H](CCCNC(=N)N)NC(=O)[C@H](CCC(N)=O)NC(=O)[C@H](CCCNC(=N)N)NC(=O)[C@H](CCCNC(=N)N)NC(=O)[C@H](Cc1ccccc1)NC(=O)[C@@H](N)CCCCN)C(=O)NC(C)(C)C(=O)N[C@@H](Cc1ccc(Br)cc1)C(=O)O [Peptide 13, Lys-Phe-Arg-Arg-Gln-Arg-Pro-αMeArg-Leu-Ser-His-Lys-Gly-Pro-Nle-Aib-paraBrPhe] (H-KFRRQRP[αMeR]LSHKGP[Nle][Aib][Phe(4-Br)]-OH; N-terminus and C-terminus assumed) | without inducing any vasoactive effects | had an impact on the heart rate
8 | 0.56 ± 0.033 | – | – | 62 ± 6 | 2 | CCCC[C@H](NC(=O)[C@@H]1CCCN1C(=O)CNC(=O)[C@H](CCCCN)NC(=O)[C@H](Cc1c[nH]cn1)NC(=O)[C@H](CO)NC(=O)[C@H](CC(C)C)NC(=O)[C@](C)(CCCNC(=N)N)NC(=O)[C@@H]1CCCN1C(=O)[C@H](CCCNC(=N)N)NC(=O)[C@@H]1CCC(=O)N1)C(=O)NC(C)(C)C(=O)N[C@@H](Cc1ccc(Br)cc1)C(=O)O [Peptide 12, pGlu-Arg-Pro-αMeArg-Leu-Ser-His-Lys-Gly-Pro-Nle-Aib-paraBrPhe] ([pGlu]RP[αMeR]LSHKGP[Nle][Aib][Phe(4-Br)]-OH; C-terminus assumed) | – | –
9 | – | – | 77 ± 4 | 48 ± 7 | – | CCCC[C@H](NC(=O)[C@@H]1CCCN1C(=O)CNC(=O)[C@H](CCCCN)NC(=O)[C@H](Cc1c[nH]cn1)NC(=O)[C@H](CO)NC(=O)[C@](C)(CC(C)C)NC(=O)[C@H](CCCNC(=N)N)NC(=O)[C@@H]1CCCN1C(=O)[C@H](CCCNC(=N)N)NC(=O)[C@H](CCC(N)=O)NC(=O)[C@H](CCCNC(=N)N)NC(=O)[C@H](CCCNC(=N)N)NC(=O)[C@H](Cc1ccccc1)NC(=O)[C@@H](N)CCCCN)C(=O)NC(C)(C)C(=O)N[C@@H](Cc1ccc(Br)cc1)C(=O)O [Peptide 15] (H-KFRRQRPR[αMeL]SHKGP[Nle][Aib][Phe(4-Br)]-OH; N-terminus and C-terminus assumed) | without inducing any vasoactive effects | had an impact on the heart rate
